Laboratory results as given in patent publication US20250163522A1, “METHODS FOR PRESERVING HEALTHY INTESTINAL MICROBIOME DURING GROWTH PROMOTER ADMINSTRATION” (BIOMEDIT, LLC, priority 2022, published 2025).
Entries after “also recorded” stand apart in the source; their conditions may differ.

How the values were obtained:
Format in all cases: in vivo, chickens (Gallus gallus)
[1] = tested on: Ross 708 male broilers; assay: Clinical study of in-feed AGPs in broilers: weight gain and feed conversion; details: in-feed: 50 g/ton BMD, 20 g/ton avilamycin, 16.5 g/ton virginiamycin, 70 g/ton narasin; 35 days
Excerpt: 500 healthy Ross 708 male broilers sourced from a commercial hatchery were used in the experiment. […] Birds were individually tagged with a unique identifier and were randomly assigned to one of 25 floor pens (20 animals per pen). Groups of 5 pens were assigned to each of 5 different treatments. The 5 treatments included: 1) control birds fed least-cost diets as follows: A starter diet was fed from days 0 to 14 of the study, followed by a grower diet (14-28d) and a finisher diet (28-35d). 2) Birds fed the above diets supplemented with 50 g/ton BMD. 3) Supplemented with 20 g/ton avilamycin. 4) Supplemented with 16.5 g/ton Virginiamycin. And 5) supplemented with 70 g/ton narasin. Birds were raised for 35 days in a barn on top of used litter.
Individual body weights were collected on days 0, 7, 21 and 35. Pen weights were collected on days 14 and 28. Feed weigh backs for each pen were done on days 7, 14, 21, 28 and 35 of the study. Average bird weights and feed intake per pen were used to calculate weekly values of average daily gain and feed conversion ratios. Weekly values were compared between treatments using the Mann Whitney U test. On days 7, 21 and 35 three birds per pen were randomly selected and euthanized for the collection of cecal contents and blood. Blood was collected via wing vein venipuncture, except for birds that were too small, in which cases direct heart puncture was used. In both cases, blood was collected into vacutainer tubes and centrifuged to obtain serum. Cecal samples were collected by aseptically squeezing the cecum content into a sterile tube. Cecal samples were placed on dry ice immediately after collection. All samples were stored at −80° C. until processing.

[2] = tested on: AMR genes in the cecum microbiome; assay: AMR gene abundance analysis (AMR++ pipeline) of cecal microbiome; details: day 35 cecum; for AMR gene classes changed compared to controls: Mann-Whitney U p-value<0.05; for total number of different AMR genes detected: compared to control; for total AMR gene abundance compared to control: RPKM
Description: AMR gene abundances per sample were determined using the AMR++ pipeline (Lakin, S. M. et al., Nucleic Acids Res 45, D574-D580 (2017)) (v. 2.0.2) starting from the raw metagenomics sequences and using the MegaRes (v. 2.0.0) database. Only genes involved in drug resistance were considered. The AMR gene counts per sample obtained from AMR++ were expressed in unites of reads per kilobase per million reads (RPKM) based on the corresponding gene lengths from the MegaRes database. RPKM values across treatments were compared using the Mann-Whitney U test.

[3] = tested on: cecal microbiome; assay: 16S rRNA amplicon profiling of cecal microbiome of AGP treated broilers; details: days 21 and 35
Description: Total DNA from frozen cecal content samples were extracted using the Lysis and Purity kit (Shoreline Biome, Farmington, CT) following the manufacturer's protocol. The resulting DNA was used for library preparation with the Shoreline Biome V4 16S DNA Purification and Library Prep Kit (Shoreline Biome, Farmington, CT). PCR amplification of the V4 region of the 16S rRNA gene was performed using the 515F (5′[…]) and 806R (5′-[…]) primers. The resulting amplicons were then sequenced using 2×250 bp paired-end kits on the Illumina MiSeq platform.
Paired raw reads were processed with cutadapt (v. 2.5) (Martin, M. Cutadapt 2011 17, 3, doi: 10.14806/ej. 17.1.200 (2011)) followed by DADA2 (v.1.12.1) (Callahan et al., Nat Methods 13, 581-581 (2016)) to generate a matrix of read counts per sample at the level of amplicon sequence variants (ASVs). […] Reads assigned to the Vibrionaceae family were removed from the analysis, these correspond to a small amount (˜1% relative abundance) of Vibrio harveyii that was spiked in some of the samples. The mean sequencing depth after filtering was 43,955 reads per sample (standard deviation=12,391). The Chao, Simpson, and Shannon measures of alpha diversity were calculated from the matrix of raw counts using the scikit-bio (v. 0.5.6) python package and compared across treatments at each sampling time using the Mann-Whitney U test. […]

[4] = tested on: cecal microbiome; assay: Shotgun metagenomics (functional/taxonomic profiles, GSEA) of cecal microbiome, day 35 broilers; details: for functional processes enriched in cecal microbiome relative to controls (GSEA): day 35 cecal samples
Description: 74 frozen cecal samples from day 35 birds were sent to CosmosID (Rockville, MD) for shotgun metagenomics sequencing. DNA was extracted using the ZymoBIOMICS DNA Miniprep Kit (ZymoBIOMICS, Irvine, CA) according to the manufacturers protocol. The isolated DNA was quantified by Qbit (ThermoFisher, Coon Rapids, MN). DNA libraries were prepared using the Illumina Nextera XT library preparation kit (Illumina, San Diego, CA), with a modified protocol. Libraries were then sequenced on an Illumina HiSeq platform 2×150 bp.
Reads were trimmed and Illumina adapters removed using Trimmomatic (v 0.39) (Bolger et al., Bioinformatics 30, 2114-2120 (2014)) with options SLIDINGWINDOW:5:20 LEADING:3 TRAILING:3. Host reads (Gallus gallus, GenBank assembly GCA_000002315) and spike-in reads from Vibrio harveyii (ATCC 14126) were removed using Bowtie2 (v. 2.3.5.1) (Langmead et al., Nat Methods 9, 357-359 (2012)).
Taxonomic profiling of individual reads was carried out using Kaiju (v. 1.7.3) (Menzel et al., Nat Commun 7, 11257 (2016)) with the nr_euk database. Kaiju outputs were summarized for each read as the number of bases aligned to proteins in the reference database. In cases of individual reads mapping to more than one taxonomic group, the number of bases assigned to each taxon was calculated as the alignment length (in base pairs) multiplied by the fraction of bases assigned unambiguously to said taxon out of all the taxa to which the read mapped. The numbers of assigned bases per read were used to estimate species-level relative abundances using metametamerge (v. 1.1) (Piro, V. C., et al., Microbiome 5, 101 (2017).) taking into account the average coding length per species in the nr_euk database.
Functional profiling was done by first assembling the reads from each sample into contigs using Spades (v. 3.13.1, option --meta) (Nurk, S. et al., Genome Res 27, 824-834 (2017)), with default parameters, followed by protein prediction with Prokka (v. 1.14.5) (Seemann, T. Prokka: Bioinformatics 30, 2068-2069 (2014).). Predicted protein sequences were aligned to a reference database and using Diamond (v. 0.9.30) (Buchfink, B. et al. Nat Methods 18, 366-368 (2021)) and annotated based on the function assigned to the top hit in the database. To avoid misannotations, (Plata, G. et al. Nat Chem Biol 8, 848-854 (2012)) the inventors only considered hits with at least 70% identity and 70% query coverage. The reference database was built starting from 46,181 complete bacterial genomes downloaded from the PATRIC (Davis, J. J. et al. Nucleic Acids Res 48, D606-D612 (2020)) database representing at most 10 genomes per species from ˜400 taxonomic families including those most frequently observed in broiler microbiomes. To speed up functional annotations, protein sequences within each family in the database were clustered at 90% sequence identity using CD-HIT (v. 4.8.1) (Huang, Y. et al. Bioinformatics 26, 680-682 (2010)) and the longest sequence from each cluster was kept for the diamond search.
To quantify the abundance of each function per sample, reads were mapped to the corresponding contigs using BWA (v. 0.7.17) (Li, H. & Durbin, R. Bioinformatics 25, 1754-1760 (2009)), and reads mapping to each predicted protein were counted with HTseq (v. 0.11.3) (Anders, S. et al. Bioinformatics 31, 166-169 (2015)). Read counts per RAST functional role were TPM normalized based on the Prokka protein lengths (Zhao, S. et. al. RNA 26, 903-909 (2020)) and expressed in units of mean copy numbers per genome by calculating a normalization factor such that the median abundance of a set of universal-single copy bacterial genes (Creevey, C. J. et al. PLOS One 6, e22099 (2011)) was set to 1 (Manor, O. & Borenstein, E. Genome Biology 16, 53 (2015)). A similar procedure was used to produce a copy-number normalized matrix of functional roles across samples stratified by the bacterial genera of the protein hits used to transfer functional annotations. […]

Compound	impact on bird performance [1]	effect on AMR gene abundance profiles [2]	AMR gene classes changed compared to controls [2]	total number of different AMR genes detected [2]	similarity of 16S cecal microbiome composition to control samples (ANOSIM R score) [3]	functional processes enriched in cecal microbiome relative to controls (GSEA) [4]	total AMR gene abundance compared to control [2]	Salmonella and Escherichia relative abundance in cecum ([4]; day 35)
COC[C@H]1O[C@@H](OC2OC[C@@H]3O[C@]4(O[C@H]3[C@H]2OC(=O)C(C)C)O[C@H](C)[C@@](O)(C(C)=O)[C@@H]2OCO[C@H]24)[C@@H](OC)[C@@H](O)[C@@H]1O[C@@H]1O[C@H](C)[C@H](OC)[C@H](O[C@H]2C[C@@]3(C)OC4(C[C@@H](O)[C@H](O[C@H]5C[C@@H](O)[C@H](OC(=O)c6c(C)c(Cl)c(O)c(Cl)c6OC)[C@@H](C)O5)[C@@H](C)O4)O[C@@H]3[C@@H](C)O2)[C@H]1O (stereo partly drawn) [avilamycin]	smallest effects on performance	minor	reduced the abundance of genes associated with resistance to nucleosides and macrolides	higher	higher similarity	protein synthesis and the Entner-Doudoroff pathway; also recorded: methionine metabolism, glycolysis, sporulation, and isoprenoid synthesis	–	–
Bacitracin methylene disalicylate [BMD]	smallest effects on performance	minor	–	–	higher similarity	biotin synthesis; also recorded: propanediol utilization, molybdenum-containing cofactor synthesis and CO2 fixation via the Wood-Ljungdahl pathway; also recorded: protein synthesis and the Entner-Doudoroff pathway	significant increase	–
virginiamycin	increased performance compared to controls	significantly different AMR gene abundance profiles	enriched (Mann-Whitney U p-value<0.05) for genes involved in resistance to multiple drugs	higher	–	betaine and pyridoxine biosynthesis, stress response, bacterial secretion systems, antimicrobial resistance (AMR), and biosynthesis of Gram-negative cell wall components	significant increase	~50%
